Data: paper PMC7751060 (Antiviral therapy, 2012)
Where two headings read alike, the source gives them in different places.

Tests used:
[1] = system: MNV (MNV-1.CW3); test: MNV assay: MNV RNA levels by RT-qPCR in RAW 264.7 cells; type: cell-based, murine norovirus; details: for EC90 / EC50: Norwalk virus; for EC50: RAW264.7, read-out: EC50, concentration required to reduce MNV RNA copy number by 50%; for SI (CC50/EC50), MNV / Antiviral activity against MNV (RNA levels), in words: RAW 264.7 cells; for Antiviral activity against MNV (RNA levels), in words: 0.1-100 μM (RBV 10-200 μM)
[2] = system: MNV (MNV-1.CW3); test: MNV assay: MNV infectivity by TCID50 in RAW 264.7 cells; type: cell-based, murine norovirus; details: for Effect on MNV titre (infectivity), in words: RAW 264.7 cells, TCID50
[3] = Cytotoxicity assays; type: cell-based; details: mouse, RAW 264.7 cells
[4] = system: NV replicon (HG23 cells); test: Norwalk virus replicon assay: NV RNA by RT-qPCR in HG23 cells; type: cell-based; details: for Reduction in NV RNA: 10 μM; for Effect on NV RNA levels in HG23 cells, in words: 24-96 h post-treatment; for SI / therapeutic index (CC50/EC50), NV replicon: HG23 cells; for EC90: HG23, read-out: EC90, concentration required to reduce NV RNA copy number in HG23 cells by 90%
[5] = system: NPT II expression in HG23 cells; test: Western blot of NPT II expression in HG23 cells; type: cell-based, Norwalk virus; details: for NPT II expression, % of untreated cells: 72 h incubation; for IC50: Norwalk virus, HG23, read-out: IC50, concentration required to reduce NPT II expression in HG23 cells by 50%
[6] = Cytotoxicity assays; type: cell-based; details: human, HG23 and Huh-7 cells
[7] = system: HCV; details: cited from earlier work
[8] = system: bovine viral diarrhoea virus (BVDV); details: cited from earlier work
[9] = cited from earlier work
[10] = system: HCV infections; details: reportedly; Phase II, treatment of HCV; cited from earlier work
[11] = RAW264.7, read-out: EC90, concentration required to reduce MNV RNA copy number by 90%
[12] = Norwalk virus, HG23, read-out: EC50, concentration required to reduce NV RNA copy number in HG23 cells by 50%, RT-qPCR
[13] = read-out: EC50, concentration required to reduce NV RNA copy number in HG23 cells by 50%, RT-qPCR

| SMILES | EC50 [1] | EC90 [1, 11] | SI (CC50/EC50), MNV [1] | Antiviral activity against MNV (RNA levels), in words [1] | Effect on MNV titre (infectivity), in words [2] | CC50 at 5 days [3] | Effect on NV RNA levels in HG23 cells, in words [4] | SI / therapeutic index (CC50/EC50), NV replicon [4] | EC50 [4, 12] | EC90 ([4]; Norwalk virus) | CC50 at 5 days [6] | further results |
| --- | --- | --- | --- | --- | --- | --- | --- | --- | --- | --- | --- | --- |
| C[C@@]1(O)[C@H](O)[C@@H](CO)O[C@H]1n1ccc(N)nc1=O [2′-C-MeC, 4-amino-1-((2R, 3R, 4R, 5R)-3,4 dihydroxy-5-(hydroxymethyl)-3-methyltetrahydrofuran-2-yl) pyrimidin-2(1H)-one] | 6.9 ± 3.9 µM | 25.4 ± 3.6 µM | >14.6 | dose- and time-dependent reduction of MNV RNA levels | MNV titres were significantly reduced | > 100 µM | dose- and time-dependent reduction of NV RNA levels | > 77.5 | 1.3 µM | 8.9 ± 1.5 µM | > 100 µM | Reduction of MNV RNA levels ([1]; 0.1 μM, 72 h of exposure): 2 log10; Inhibition of MNV replication (RNA) ([1]; 100 μM, 24 h post-treatment): 3 log10; EC90 ([1]; RAW264.7, 24 h, read-out: EC90, MNV RNA (1 log10 reduction) (converted)): 25.6 ± 3.7 µM; inhibition at 100 µM ([2]; Norwalk virus, RAW264.7, 24 h, read-out: Inhibition of MNV replication (titre)): 99%; Reduction in NV RNA ([4]; 72 h post-treatment): 1.2 log10; Reduction in NV RNA ([4]; 96 h post-treatment): 3.6 log10; Reduction of NV RNA level ([4]; 0.1 and 1 μM, after 96 h): 2.5 log10; EC50 [4, 13]: 1.29 ± 0.8 µM; NPT II expression, % of untreated cells ([5]; 1 μM): 83%; NPT II expression, % of untreated cells ([5]; 10 μM): 13%; NPT II expression, % of untreated cells ([5]; 100 μM): 2%; IC50 [5]: 2.77 ± 1.4 µM; EC50 ([7]; read-out: EC50 against HCV, range given for HCV and BVDV together): 2 to 7 µM; EC50 ([8]; read-out: EC50 against BVDV, range given for HCV and BVDV together): 2 to 7 µM |
| C[C@@]1(F)[C@H](O)[C@@H](CO)O[C@H]1n1ccc(N)nc1=O [2′-F-2′-C-MeC, 4-amino-1-((2R, 3R, 4R, 5R)-3-fluoro-4-hydroxy-5-(hydroxymethyl)-3-methyltetrahydrofuran-2-yl) pyrimidin-2(1H)-one] | 12.7 ± 2.9 µM | 91.2 ± 2.8 µM | >7.9 | dose-dependent antiviral activity only at 12 h post-treatment | reduced MNV titres, but only at 12 h post-treatment | > 100 µM | dose- and time-dependent reduction of NV RNA levels | > 31.4 | 3.2 ± 1.5 µM | 49 ± 2.9 µM | > 100 µM | IC50 ([2]; Norwalk virus, RAW264.7, 12 h, read-out: IC50, MNV infectivity): 33.9 ± 1.1 µM; Activity against HCV replication, in words [7]: inhibits HCV; Activity against BVDV replication, in words [8]: not BVDV replication |
| Nc1ccn([C@@H]2CS[C@H](CO)O2)c(=O)n1 [3TC, 4-amino-1-((2R, 5S)-2-(hydroxymethyl)-1,3-oxathiolan-5-yl) pyrimidin-2(1H)-one, reference compound] |  |  |  | Neither 3TC nor NHC had antiviral activity against MNV | No reduction of MNV titre was observed | > 100 µM | did not show antiviral activity |  |  |  | > 100 µM |  |
| O=c1nc(NO)ccn1[C@@H]1O[C@H](CO)[C@@H](O)[C@H]1O [NHC, 1-((2R, 3R, 4S, 5R)-3,4-dihydroxy-5-(hydroxymethyl)tetrahydrofuran-2-yl)-4-(hydroxyamino) pyrimidin-2(1H)-one] | 8.8 ± 4.2 µM |  | >11.4 | Neither 3TC nor NHC had antiviral activity against MNV | No reduction of MNV titre was observed | > 100 µM | dose- and time-dependent reduction of NV RNA levels | > 68.0 | 1.5 µM | 16.6 ± 2.1 µM | > 100 µM | EC50 [4, 13]: 1.47 ± 1.1 µM; NPT II expression, % of untreated cells ([5]; 1 μM): 91%; NPT II expression, % of untreated cells ([5]; 10 μM): 40%; NPT II expression, % of untreated cells ([5]; 100 μM): 16%; IC50 [5]: 6 ± 1.7 µM; Activity against HCV, in words [7]: active against HCV, BVDV; Activity against BVDV, in words [8]: active against HCV, BVDV; Mutagenic properties [9]: has mutagenic properties |
| CC(C)[C@H](N)C(=O)O[C@@H]1[C@@H](CO)O[C@@H](n2ccc(N)nc2=O)[C@]1(C)O [NM-283] |  |  |  |  |  |  |  |  |  |  |  | Clinical outcome in HCV trials, in words [10]: found to have gastrointestinal problems |
| NC(=O)c1ncn([C@@H]2O[C@H](CO)[C@@H](O)[C@H]2O)n1 [RBV, ribavirin, reference compound] | 63.5 ± 2.3 µM | 105 ± 1.5 µM | >1.6 | reduced MNV RNA levels in a dose-dependent manner at 12 h and 24 h post-treatment |  | > 100 µM |  | >5.0 | 40 ± 2.3 µM | 96.3 ± 2.5 µM | > 200 µM |  |
| CC(C)C(=O)OC[C@H]1O[C@@H](n2ccc(N)nc2=O)[C@](C)(F)[C@@H]1OC(=O)C(C)C [RG-7128] |  |  |  |  |  |  |  |  |  |  |  | Clinical outcome in HCV trials, in words [10]: demonstrated safety and efficacy against HCV |
